Assay results as given in PMC11292009, “Mapping protein binding sites by photoreactive fragment pharmacophores” (Communications Chemistry, 2024).

Key:
Type in all cases: binding
[1] = test system: T1, STAT5B-NTD; assay: Intact MS labeling screen, STAT5B-NTD conjugated with photocatalyst Ir-G2-PEG3-COOH (450 nm); conditions: 450 nm 10 min;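 further: 0.14 µL of 100 mM DMSO fragment stock added to the conjugate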
T1 construct: His-SUMO (N, cleaved yes); made in house; host or cells: E. coli BL21 RILP
Experimental: For the photocatalysis experiments, 1.4 µL photocatalyst (in 1.4 mM DMSO solution, 10 eq) was pre-incubated with 1.5 µL coupling reagent (0.75 µL, 5.6 mM EDC (20 eq)+0.75 µL 4.2 mM NHS and 1.5 µL 2.1 mM (15 eq) BOP for 30 min in dark. 30 µL STAT5B-NTD (in 7 µM concentration) was added and incubated further at room temperature overnight or at 37 °C for 1 h in dark. After addition of 0.14 µL PhP (in 100 mM DMSO) the solution was further incubated in dark for 1 h. Irradiation was carried out using 450 nm LED lamp (7.6Vx0A) for 10 min at 4 °C.
(§1) During the analysis, the column temperature was maintained at a constant 60 °C, and a sample volume of 3 µL was injected for each analysis. Data acquisition was conducted in positive ion mode within the m/z 100–2000 (mass-to-charge ratio) range. For the full protocol and spectra of the hits, see Supplementary Note 2.

[2] = test system: carbonic anhydrase II (CA); assay: Intact protein MS photoaffinity labeling screen, carbonic anhydrase; conditions: intact protein MS after 10 min irradiation
Experimental: (§2) Using a plate-based format with one fragment per well, each fragment was incubated with the target proteins for 15 min to allow for the formation of non-covalent interactions. […] Finally, the results were directly analyzed from the plate using intact protein mass spectrometry by observing the mass additions that correspond to successful labeling (Fig. 2c, for labeling % values see Supplementary data). The library was first characterized against three benchmark proteins like carbonic anhydrase (CA), lysozyme (Lyo), and myoglobin (Myo).

[3] = test system: T1, STAT5B-NTD; assay: Intact MS photoaffinity labeling screen, STAT5B-NTD (365 nm, UHPLC-MS); conditions: for MS labeling percentage, STAT5B: STAT5B-NTD, 365 nm 10 min, no photocatalyst; for STAT5B-NTD (experimental hit status): hit flag 1/0, sheet PhP, photoaffinity labeling screen;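 on MS labeling percentage, STAT5B: 0.17 µL of 100 mM DMSO fragment stock added to the protein sample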
Experimental: STAT5B protein in 7 µM concentration in pH 7.4 PBS buffer was pre-incubated with 0.17 µL PhP (in 100 mM DMSO solution) for 1 h at room temperature in dark. Irradiation was carried out at 4 °C for 10 min using 365 nm UV lamp.
as §1

[4] = test system: T2, KRas^G12D; assay: Intact MS photoaffinity labeling screen, KRas G12D (302 nm, LCMS-TOF); conditions: for MS labeling percentage, KRas: KRas G12D, 302 nm 10 min; for KRAS-G12D (experimental hit status): hit flag 1/0, sheet PhP, photoaffinity labeling screen
T2 construct: purchased GSK/GenScript
Experimental: as §2
(§3) The PhP library was screened against BRD4-BD1 and KRas^G12D as follows. […] The probe plate was placed on ice. 15 μL of protein stock solution (1 μM BRD4-BD1 (GSK/GenScript) or KRas^G12D (GSK/GenScript) in PBS buffer) was dispensed into wells containing fragments. The plate was left on ice for 15 min for incubation, then irradiated at 302 nm for 10 min, and centrifuged (1000 rpm, 1 min) to remove any bubbles. […] The deconvoluted spectra were analyzed using R Studio software.

[5] = test system: myoglobin (Myo); assay: Intact protein MS photoaffinity labeling screen, myoglobin; conditions: intact protein MS after 10 min irradiation
Experimental: as §2

[6] = test system: lysozyme (Lyo); assay: Intact protein MS photoaffinity labeling screen, lysozyme; conditions: intact protein MS after 10 min irradiation
Experimental: as §2

[7] = test system: T3, BRD4-BD1; assay: Intact MS photoaffinity labeling screen, BRD4-BD1 (302 nm, LCMS-TOF); conditions: for MS labeling percentage, BRD4: BRD4-BD1, 302 nm 10 min; for BRD4-BD1 (experimental hit status): hit flag 1/0, sheet PhP, photoaffinity labeling screen
T3 construct: screened the PhP library against the first bromodomain of BRD4 (BRD4-BD1); purchased GSK/GenScript
Experimental: as §2, §3

Row | Structure (SMILES) | MS labeling percentage, CA [2] | MS labeling percentage, STAT5B+photocat [1] | MS labeling percentage, STAT5B [3] | STAT5B-NTD (experimental hit status) [3] | MS labeling percentage, KRas [4] | KRAS-G12D (experimental hit status) [4] | MS labeling percentage, Myo [5] | MS labeling percentage, Lyo [6] | MS labeling percentage, BRD4 [7] | BRD4-BD1 (experimental hit status) [7]
1 | Cn1ccnc1-c1cc(NC(=O)CCC2(C)N=N2)n[nH]1 [PhP043, Cn1ccnc1-c2cc(n[nH]2)NC(=O)CCC3(C)N=N3] | 0.5% | 0% | 1% | 0 | 0.3% | 0 | 0.1% | 0% | 0.8% | 0
2 | COc1ccccc1OCCNC(=O)CCC1(C)N=N1 [PhP044, COc1ccccc1OCCNC(=O)CCC2(C)N=N2] | 0.2% | 1.4% | 1% | 0 | 0% | 0 | 0% | 0% | 0.2% | 0
3 | CC1(CCC(=O)NCC(C)(C)NS(C)(=O)=O)N=N1 [PhP045, CS(=O)(=O)NC(C)(C)CNC(=O)CCC1(C)N=N1] | 0.5% | 2.3% | 0% | 0 | 0.2% | 0 | 0.2% | 0% | 0.4% | 0
4 | CC1(CCC(=O)NC2CCc3nccn3C2)N=N1 (centres unmarked) [PhP047, N1=NC1(C)CCC(=O)NC(CC2)Cn(c23)ccn3] | 0.6% | 2.1% | 0% | 0 | 0.1% | 0 | 0% | 0% | 0.5% | 0
5 | CC1(CCC(=O)Nc2sc3c(c2C(N)=O)CCC(C(C)(C)C)C3)N=N1 (centres unmarked) [PhP049, CC(C)(C)C(CC1)Cc(c12)sc(c2C(=O)N)NC(=O)CCC3(C)N=N3] | 0.2% | 2% | 1% | 0 | 0.1% | 0 | 0.1% | 0% | 0% | 0
6 | CC1(CCC(=O)NCCCn2ccnc2)N=N1 [PhP050, N1=NC1(C)CCC(=O)NCCCn2ccnc2] | 0.3% | 0.4% | 1% | 0 | 0.6% | 0 | 0.2% | 0% | 0.4% | 0

Further lines, with some results ahead:

Row | MS labeling percentage, CA [2] | Structure (SMILES) | MS labeling percentage, STAT5B+photocat [1] | MS labeling percentage, STAT5B [3] | STAT5B-NTD (experimental hit status) [3] | MS labeling percentage, KRas [4] | KRAS-G12D (experimental hit status) [4] | MS labeling percentage, Myo [5] | MS labeling percentage, Lyo [6] | MS labeling percentage, BRD4 [7] | BRD4-BD1 (experimental hit status) [7]
7 | 0.9% | CC1(CCC(=O)Nc2cccc(-n3cnnn3)c2)N=N1 [PhP042, N1=NC1(C)CCC(=O)Nc2cccc(c2)-n3cnnn3] | 17.8% | 2% | 0 | 0.5% | 0 | 0.2% | 0% | 1% | 0
8 | 0.2% | CC(C)CN1CCOC(CNC(=O)CCC2(C)N=N2)C1 (centres unmarked) [PhP046, CC(C)CN1CCOC(C1)CNC(=O)CCC2(C)N=N2] | 0.7% | 1% | 0 | 0.2% | 0 | 0.3% | 0% | 0.1% | 0
